Measurements published in patent publication US20110213038A1, “CONTROL OF BED BUGS” (priority 2008, published 2011).

Legend:
[1] = test system: adult bed bugs Cimex lectularius; assay: Vapor exposure of unconcealed bed bugs in sealed jar, 24 hour mortality; assay type: in vivo; conditions: one drop (about 25-30 mg) on filter paper in sealed 16 oz. glass jar
Experimental: (§1) This test was undertaken employing unconcealed bed bugs. One drop (about 25-30 mg) of a naturally occurring aromatic test compound was applied to a filter paper and placed with a 16 oz. glass jar (3½ inches diameter×3⅞ inches high) containing ten adult bed bugs Cimex lectularius of both sexes. The jar was then sealed with a plastic lid. Five replicates of ten bed bugs were exposed to each of the test compounds. The test formulations were assessed for 24 hour mortality. A control jar with no test compound was also included in the testing.
The test was repeated with several other test compounds in the same manner: […]

[2] = test system: adult bed bugs Cimex lectularius; assay: Vapor exposure of concealed bed bugs (folded mattress ticking) in sealed jar, 72 hour mortality; assay type: in vivo; conditions: one drop (about 25-30 mg) on filter paper in sealed 16 oz. glass jar
Experimental: as §1, with “conducted using concealed” for “undertaken employing unconcealed”, “sexes. A piece of folded mattress ticking was also placed in the jar to allow the bed bugs a place to hide.” for “sexes.”, “Mortality was” for “The test formulations were”, “at 72 hours.” for “for 24 hour mortality.”, “testing. The mortality results were as follows.” for “testing.”

[3] = repeated test with other compounds

| Molecule | 24 hr Mean Mortality % ([1]; first test) | 72 hr Mean Mortality % [2] | 24 hr Mean Mortality % [1, 3] |
| --- | --- | --- | --- |
| C=C[C@](C)(O)CCC=C(C)C [l-Linalool] | 100.0% | 68% |  |
| CC(O)c1ccccc1 (stereo not shown) [Styralyl alcohol] |  | 91.8% | 89.8% |
| C=C(C)[C@H]1CC=C(C)C(=O)C1 [d-Carvone] |  |  | 47.8% |
| l-Carvone | 73.5% | 46.7% |  |
| CC(C)[C@@H]1CC[C@@H](C)C(=O)C1 [Tetrahydrocarvone] |  | 16.7% | 58.1% |
| C=C[C@@](C)(O)CCC=C(C)C [d-Linalool] |  |  | 92.0% |
